Data as given in ChEMBL document CHEMBL1201862, “PubChem BioAssay data set” (2004).
The source made the active and inactive calls.

Experiments:
Cytochrome P450 3A4 = Cytochrome P450 3A4 (Homo sapiens, UniProt P08684);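 further: CYP3A4 tested as one member of a cytochrome P450 panel screen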
Cytochrome P450 1A2 = target: T1, Cytochrome P450 1A2 (Homo sapiens, UniProt P05177);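 further: PubChem cytochrome P450 panel assay, CYP1A2 panel member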
T1 sequence (P05177 whole entry): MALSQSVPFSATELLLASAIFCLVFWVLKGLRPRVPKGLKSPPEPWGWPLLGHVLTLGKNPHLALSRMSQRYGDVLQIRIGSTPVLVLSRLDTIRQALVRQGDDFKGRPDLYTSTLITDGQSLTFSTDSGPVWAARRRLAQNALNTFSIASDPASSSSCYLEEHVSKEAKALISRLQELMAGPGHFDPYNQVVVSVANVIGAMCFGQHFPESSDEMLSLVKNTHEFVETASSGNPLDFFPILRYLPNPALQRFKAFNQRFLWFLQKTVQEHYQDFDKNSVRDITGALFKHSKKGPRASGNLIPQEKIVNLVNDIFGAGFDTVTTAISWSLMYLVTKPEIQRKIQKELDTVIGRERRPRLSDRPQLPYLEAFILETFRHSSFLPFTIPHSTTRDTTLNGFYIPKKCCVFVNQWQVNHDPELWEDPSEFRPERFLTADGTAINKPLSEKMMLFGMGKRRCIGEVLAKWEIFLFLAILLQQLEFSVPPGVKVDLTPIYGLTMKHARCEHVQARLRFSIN

HEK293 [1] = test: inhibition of NOD1-driven NF-kB reporter – cell-based, luminescence, uHTS, primary screen (AID 1578); type: functional; conditions: Homo sapiens
HEK293 [2] = test: cells; type: functional, cell-based; conditions: Homo sapiens
HEK293 [3] = test: cells; type: functional, cell-based; conditions: Homo sapiens; remark: listed apart in the source
[4] = target: Nucleotide-binding oligomerization domain-containing protein 2 (Homo sapiens, UniProt Q9HC29); test: inhibition of NOD2-driven NF-kB reporter – cell-based, luminescence, uHTS, HEK293 (AID 1566); type: functional
HEK293 [5] = test: NOD2 signaling inhibitors in MDP-stimulated cells, cell-based, uHTS, luminescence (AID 2001); type: functional; conditions: Homo sapiens
HEK293 [6] = test: cells; type: functional, cell-based; conditions: Homo sapiens; remark: listed apart in the source
[7] = Luminescence Cell-Based Dose Retest to Confirm Inhibitors of Cancer Stem Cells. [Related pubchem assays (depositor defined):AID2717, AID2721]; type: functional; conditions: Homo sapiens
INS1 = test: INS-1E survival protection against cytokine death – cell-based, luminescence, retest, dose response (AID 449756); type: functional; conditions: Rattus norvegicus;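 further: cell death triggered by IL-1 beta plus TNF-alpha plus IFN-gamma mixture; protective hits raise ATP signal compared with cytokine alone wells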
[8] = target: Glyceraldehyde-3-phosphate dehydrogenase (Homo sapiens, UniProt P04406)
[9] = target: T2, Alkaline phosphatase, tissue-nonspecific isozyme (Homo sapiens, UniProt P05186); test: potency against alkaline phosphatase TNAP – biochemical, luminescent, dose response, SAR follow-up (AID 1056)
T2 sequence (P05186 whole entry): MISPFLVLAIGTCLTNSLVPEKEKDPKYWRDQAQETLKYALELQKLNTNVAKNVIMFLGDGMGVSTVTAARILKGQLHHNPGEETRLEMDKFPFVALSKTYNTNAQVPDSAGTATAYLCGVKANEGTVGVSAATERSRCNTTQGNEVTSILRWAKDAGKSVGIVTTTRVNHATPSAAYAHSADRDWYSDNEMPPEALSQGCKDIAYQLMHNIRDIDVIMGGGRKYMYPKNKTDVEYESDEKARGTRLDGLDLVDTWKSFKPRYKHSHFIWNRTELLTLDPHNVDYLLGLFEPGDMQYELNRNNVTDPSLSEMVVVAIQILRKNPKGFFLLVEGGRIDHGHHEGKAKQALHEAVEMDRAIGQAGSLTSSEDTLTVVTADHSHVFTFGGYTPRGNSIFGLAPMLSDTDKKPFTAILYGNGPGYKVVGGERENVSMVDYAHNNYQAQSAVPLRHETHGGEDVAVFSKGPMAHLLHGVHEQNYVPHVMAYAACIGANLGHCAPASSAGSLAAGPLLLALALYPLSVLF

[10] = microbe, parasite or virus in culture; type: functional; conditions: Mycobacterium tuberculosis
[11] = THP-1 cell cytotoxicity, dose response, cytotoxicity control for non-replicating M. tuberculosis project (AID 489025); type: functional
[12] = Vero E6 cell cytotoxicity, dose response, cytotoxicity control for non-replicating M. tuberculosis project, secondary assay (AID 492998); type: functional, VeroE6; conditions: Vero C1008
cells = type: functional
[13] = target: T3, Short transient receptor potential channel 4 (Mus musculus, UniProt Q9QUQ5); test: block of DAMGO-driven TRPC4 calcium entry – cell-based, HEK293 TRPC4/mu-opioid, Fluo-4 calcium, dose response (AID 434942); type: functional;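 further: potency of inhibitors blocking the TRPC4 calcium response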
T3 sequence (Q9QUQ5 whole entry): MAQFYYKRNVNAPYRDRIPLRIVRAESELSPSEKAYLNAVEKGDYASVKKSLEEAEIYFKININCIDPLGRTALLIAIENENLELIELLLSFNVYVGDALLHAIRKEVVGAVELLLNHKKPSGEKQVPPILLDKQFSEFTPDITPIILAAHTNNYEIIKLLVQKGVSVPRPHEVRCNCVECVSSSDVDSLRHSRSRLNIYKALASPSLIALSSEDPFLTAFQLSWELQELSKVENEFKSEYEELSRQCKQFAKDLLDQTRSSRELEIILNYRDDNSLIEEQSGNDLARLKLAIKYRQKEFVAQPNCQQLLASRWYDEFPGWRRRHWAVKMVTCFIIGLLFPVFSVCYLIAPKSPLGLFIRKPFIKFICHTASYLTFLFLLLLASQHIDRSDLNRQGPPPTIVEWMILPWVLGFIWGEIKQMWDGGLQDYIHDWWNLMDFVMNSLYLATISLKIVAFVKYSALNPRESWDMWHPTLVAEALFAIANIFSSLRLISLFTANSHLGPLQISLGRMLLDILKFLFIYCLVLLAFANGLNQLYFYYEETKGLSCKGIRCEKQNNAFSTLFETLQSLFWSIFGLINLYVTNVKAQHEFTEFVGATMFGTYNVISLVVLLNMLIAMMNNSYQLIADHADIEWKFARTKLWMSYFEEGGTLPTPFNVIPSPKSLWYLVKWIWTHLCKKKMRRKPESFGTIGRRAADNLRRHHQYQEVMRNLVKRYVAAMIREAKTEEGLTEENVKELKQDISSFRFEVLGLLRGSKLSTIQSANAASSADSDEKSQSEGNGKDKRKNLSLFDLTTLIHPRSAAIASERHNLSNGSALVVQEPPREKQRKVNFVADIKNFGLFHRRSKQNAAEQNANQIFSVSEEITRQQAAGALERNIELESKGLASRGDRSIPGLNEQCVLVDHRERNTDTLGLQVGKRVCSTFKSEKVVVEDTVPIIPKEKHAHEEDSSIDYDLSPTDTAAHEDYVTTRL

[14] = target: T3, Short transient receptor potential channel 4; test: calcium entry via TRPC4 opening agents – cell-based, HEK293 TRPC4/mu-opioid, Fluo-4 calcium, dose response (AID 434937); type: functional
Coagulation factor XII = target: T4, Coagulation factor XII (Homo sapiens, UniProt P00748); type: functional;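 further: activated factor XIIa alpha cleaving a fluorogenic AMC peptide substrate; inhibitor potency from loss of enzyme activity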
T4 sequence (P00748 whole entry): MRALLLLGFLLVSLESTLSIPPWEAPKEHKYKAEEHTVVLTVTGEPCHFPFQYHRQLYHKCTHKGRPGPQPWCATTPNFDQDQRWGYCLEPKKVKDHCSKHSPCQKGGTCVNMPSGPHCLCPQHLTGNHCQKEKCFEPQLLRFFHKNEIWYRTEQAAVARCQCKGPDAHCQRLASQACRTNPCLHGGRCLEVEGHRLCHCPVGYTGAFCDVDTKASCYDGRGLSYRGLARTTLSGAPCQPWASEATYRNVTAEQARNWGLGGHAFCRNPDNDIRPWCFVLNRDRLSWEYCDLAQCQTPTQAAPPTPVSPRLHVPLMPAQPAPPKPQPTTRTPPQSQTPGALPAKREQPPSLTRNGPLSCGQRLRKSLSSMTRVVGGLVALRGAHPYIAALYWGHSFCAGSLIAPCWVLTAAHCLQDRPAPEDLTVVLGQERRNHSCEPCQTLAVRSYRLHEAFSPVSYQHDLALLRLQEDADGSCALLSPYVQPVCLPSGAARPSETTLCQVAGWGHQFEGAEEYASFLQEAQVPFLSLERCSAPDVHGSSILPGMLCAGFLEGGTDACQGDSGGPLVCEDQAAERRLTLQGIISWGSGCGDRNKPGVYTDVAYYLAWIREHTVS

[15] = target: T5, Neuropeptides B/W receptor type 1 (Homo sapiens, UniProt P48145); test: Fluorescence-based dose response cell-based high throughput screening assay to identify antagonists of the G-protein coupled receptor 7 (GPR7). [Related pubchem assays: 1952 (Screening assay (GPR7 antagonists).), 1880 (Summary AID.)]; type: functional
T5 sequence (P48145 whole entry): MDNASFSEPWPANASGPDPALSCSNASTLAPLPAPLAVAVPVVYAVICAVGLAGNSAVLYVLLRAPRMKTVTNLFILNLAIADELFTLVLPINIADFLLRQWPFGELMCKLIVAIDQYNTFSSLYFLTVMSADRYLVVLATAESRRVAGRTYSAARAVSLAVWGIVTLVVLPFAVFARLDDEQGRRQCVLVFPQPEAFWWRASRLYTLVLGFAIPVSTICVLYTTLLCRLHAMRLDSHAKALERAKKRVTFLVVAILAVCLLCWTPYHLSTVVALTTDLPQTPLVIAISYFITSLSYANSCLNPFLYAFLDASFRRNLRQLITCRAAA

[16] = target: Melanin-concentrating hormone receptor 1 (Homo sapiens, UniProt Q99705); test: Fluorescence-based counterscreen for antagonists of the G-protein coupled receptor 7 (GPR7): cell-based high throughput dose response assay to identify antagonists of the melanin-concentrating hormone receptor 1 (MCHR1).; type: functional
[17] = luciferase reporter signal suppression in cells – H4 neuroglioma cells, luminescence, dose response (AID 1990); type: functional, cell-based
[18] = Luminescence Cell-Based Dose Response HTS to Identify Inhibitors of 5'UTR Stem-Loop Driven Prion Protein mRNA Translation in H4 Neuroglioblastoma Cells. [Related pubchem assays: 1827 (Project Summary), 1813 (Primary HTS)]; type: functional
[19] = alpha-synuclein stem-loop luciferase translation blockers – H4 neuroglioma cells, luminescence, confirmation (AID 1988); type: functional, cell-based
[20] = reduction of Shn3 3'UTR-driven luciferase in osteoblasts – cell-based, Clone20 osteoblasts, firefly luciferase, cherry-picked, dose response (AID 624132); type: functional;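 further: firefly luciferase luminescence from reporter carrying the Shn3 3'UTR in osteoblasts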
[21] = loss of viability in HepG2 cells – cell-based, CellTiter-Glo, cherry-picked, cytotoxicity control for Shn3 inhibitor project, dose response (AID 624134); type: functional
[22] = non-specific 3'UTR reporter inhibition in Clone20-Shn3RL – cell-based, Renilla luciferase, cherry-picked, counter-screen for Shn3 inhibitor project, dose response (AID 624133); type: functional
Protein Wnt-3a = Protein Wnt-3a (Mus musculus, UniProt P27467); test: antagonism of Wnt3a pathway luciferase reporter – Wnt-LIGHT cells, luminescence, selectivity assay for Gli-SUFU antagonist project, dose response (AID 651570); type: functional; conditions: read-out: IC50_Mean;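 further: Wnt-LIGHT reporter cells stimulated with conditioned medium from Wnt3a-producing cells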
Protein Wnt-3a, sequence (P27467 whole entry): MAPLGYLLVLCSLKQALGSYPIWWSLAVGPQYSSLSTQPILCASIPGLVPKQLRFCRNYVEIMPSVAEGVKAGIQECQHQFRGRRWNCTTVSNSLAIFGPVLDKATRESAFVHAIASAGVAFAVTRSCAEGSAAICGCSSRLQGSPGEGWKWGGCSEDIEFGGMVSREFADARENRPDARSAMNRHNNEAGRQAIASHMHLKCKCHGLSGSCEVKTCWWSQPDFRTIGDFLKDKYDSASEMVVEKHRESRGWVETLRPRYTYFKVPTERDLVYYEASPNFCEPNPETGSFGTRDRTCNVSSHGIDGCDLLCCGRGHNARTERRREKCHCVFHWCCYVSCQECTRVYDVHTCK

Cytochrome P450 3A4, sequence (P08684 whole entry): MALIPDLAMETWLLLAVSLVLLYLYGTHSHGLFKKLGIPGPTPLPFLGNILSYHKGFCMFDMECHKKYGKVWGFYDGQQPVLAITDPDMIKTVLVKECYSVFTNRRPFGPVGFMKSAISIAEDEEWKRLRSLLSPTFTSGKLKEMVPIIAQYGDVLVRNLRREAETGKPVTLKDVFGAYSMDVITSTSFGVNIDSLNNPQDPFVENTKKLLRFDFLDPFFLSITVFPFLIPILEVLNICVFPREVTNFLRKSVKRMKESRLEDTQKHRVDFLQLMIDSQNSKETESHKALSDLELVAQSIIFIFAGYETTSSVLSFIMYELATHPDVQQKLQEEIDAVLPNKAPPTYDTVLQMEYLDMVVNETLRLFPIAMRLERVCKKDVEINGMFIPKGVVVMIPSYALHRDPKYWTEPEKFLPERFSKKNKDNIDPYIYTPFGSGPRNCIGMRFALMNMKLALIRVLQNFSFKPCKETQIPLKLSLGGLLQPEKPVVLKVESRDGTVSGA
Glyceraldehyde-3-phosphate dehydrogenase, sequence (P04406 whole entry): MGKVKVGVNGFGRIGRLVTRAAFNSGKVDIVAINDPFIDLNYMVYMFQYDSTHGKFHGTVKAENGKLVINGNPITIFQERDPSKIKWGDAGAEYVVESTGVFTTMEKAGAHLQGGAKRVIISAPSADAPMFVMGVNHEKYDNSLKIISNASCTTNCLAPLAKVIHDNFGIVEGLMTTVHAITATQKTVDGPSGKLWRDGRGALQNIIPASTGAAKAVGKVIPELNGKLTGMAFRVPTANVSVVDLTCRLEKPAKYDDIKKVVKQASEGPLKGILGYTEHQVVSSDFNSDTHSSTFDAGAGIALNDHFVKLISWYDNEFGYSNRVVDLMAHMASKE
Melanin-concentrating hormone receptor 1, sequence (Q99705 whole entry): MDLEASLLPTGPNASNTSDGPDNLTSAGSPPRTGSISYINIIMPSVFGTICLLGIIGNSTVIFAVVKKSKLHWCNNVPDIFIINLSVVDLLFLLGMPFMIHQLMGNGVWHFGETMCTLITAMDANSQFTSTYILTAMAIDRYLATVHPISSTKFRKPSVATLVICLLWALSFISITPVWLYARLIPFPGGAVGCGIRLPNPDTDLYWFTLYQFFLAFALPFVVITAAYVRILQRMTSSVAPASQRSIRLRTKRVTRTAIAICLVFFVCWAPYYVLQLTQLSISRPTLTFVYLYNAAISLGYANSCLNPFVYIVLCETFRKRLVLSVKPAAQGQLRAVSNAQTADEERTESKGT
Nucleotide-binding oligomerization domain-containing protein 2, sequence (Q9HC29 whole entry, the tested form may be a part): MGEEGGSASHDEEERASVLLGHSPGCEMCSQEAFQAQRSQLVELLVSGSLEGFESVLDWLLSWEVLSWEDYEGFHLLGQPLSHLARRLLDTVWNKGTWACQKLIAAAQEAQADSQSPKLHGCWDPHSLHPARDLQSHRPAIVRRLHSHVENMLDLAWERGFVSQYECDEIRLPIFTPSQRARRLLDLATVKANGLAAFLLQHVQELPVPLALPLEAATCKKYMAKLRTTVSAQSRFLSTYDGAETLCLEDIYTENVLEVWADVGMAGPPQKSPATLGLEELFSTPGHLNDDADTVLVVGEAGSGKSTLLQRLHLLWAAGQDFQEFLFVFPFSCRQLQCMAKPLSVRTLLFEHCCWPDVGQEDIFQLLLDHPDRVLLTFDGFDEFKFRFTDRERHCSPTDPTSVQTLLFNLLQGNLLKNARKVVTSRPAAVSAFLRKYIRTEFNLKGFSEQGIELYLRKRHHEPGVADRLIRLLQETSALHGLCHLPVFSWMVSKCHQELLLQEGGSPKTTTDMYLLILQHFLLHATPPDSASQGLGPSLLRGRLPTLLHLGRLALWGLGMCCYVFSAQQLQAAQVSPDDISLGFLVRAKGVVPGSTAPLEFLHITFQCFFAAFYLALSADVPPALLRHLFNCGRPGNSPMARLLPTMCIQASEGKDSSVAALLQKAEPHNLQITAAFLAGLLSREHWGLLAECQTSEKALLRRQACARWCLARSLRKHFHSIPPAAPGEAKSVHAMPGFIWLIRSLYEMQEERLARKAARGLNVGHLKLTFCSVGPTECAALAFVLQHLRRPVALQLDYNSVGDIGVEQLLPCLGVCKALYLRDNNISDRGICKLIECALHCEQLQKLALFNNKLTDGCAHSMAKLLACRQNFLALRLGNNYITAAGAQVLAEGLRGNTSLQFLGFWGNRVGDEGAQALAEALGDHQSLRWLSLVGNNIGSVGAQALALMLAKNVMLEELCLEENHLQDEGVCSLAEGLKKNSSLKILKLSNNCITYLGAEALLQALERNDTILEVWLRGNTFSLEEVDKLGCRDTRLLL

N#Cc1cccc(NC(=O)N2CCC3(CC2)CCN(C(=O)c2cccc(F)c2)CC3)c1
AC50 (Cytochrome P450 3A4): inconclusive

O=C(Nc1ccccc1)N1CCC2(CC1)CCN(C(=O)c1cccc(F)c1)CC2
AC50 (Cytochrome P450 1A2): 10 µM (inconclusive)
AC50 (Cytochrome P450 3A4): inconclusive

O=c1c(-c2ccc(Cl)cc2)nc2cnc(N3CCOCC3)nc2n1CCc1ccccc1
AC50 (Cytochrome P450 1A2): 2 µM (inconclusive)
AC50 (Cytochrome P450 3A4): inconclusive

CC(C)(C)C1CCC2(CC1)C(C#N)=C(SCC(=O)NC1CCCCC1)NC(=O)C2C#N (stereo not given)
EC50 (HEK293 [1]): 6.58 µM (active)
IC50 (HEK293 [2]): 9.32 µM (active)
IC50 (HEK293 [3]): 13.6 µM (active)
EC50 [4]: 17.6 µM (active)
IC50 (HEK293 [5]): 9.18 µM (active)
IC50 (HEK293 [6]): > 20 µM (inactive)
AC50 [7]: 6.34 µM (active)
AC50 (INS1): 8.73 µM (active)

COc1ccc(S(=O)(=O)Nc2ccc3ccccc3c2)cc1OC
IC50 [8]: > 100 µM (not active)
IC50 [9]: > 100 µM (inactive)

CCCCn1c(=O)c(C(=O)Nc2ncccc2C)c(O)c2ccccc21
CC50 [10]: 29.3 µM (active)
CC50 [11]: > 40 µM (active)
CC50 [12]: > 20 µM (active)
IC50 (cells): 17.3 µM (active)

CC1CCCN(CCOCCOc2ccccc2-c2ccccc2)C1 (stereo not given)
EC50 [13]: 0.335 µM (active)
EC50 [14]: 0.421 µM (active)

COc1ccc2c(c1)CCc1c(C(=O)NCc3ccc(F)cc3)noc1-2
IC50 (Coagulation factor XII): 3.61 µM (active)

COC(=O)c1ccc(Nc2nc(C)cc(=O)[nH]2)cc1
IC50 (Coagulation factor XII): > 50 µM (inactive)

Cn1cccc1C(=O)N1CCC2(CC1)CCN(C(c1ccccc1)c1ccccc1)CC2
AC50 (Cytochrome P450 1A2): 5.01 µM (inconclusive)
AC50 (Cytochrome P450 3A4): inconclusive

CCOc1ccc(C(C)(C)C)cc1S(=O)(=O)Nc1cccnc1
IC50 [9]: 12.5 µM (active)

O=[N+]([O-])c1cncc([N+](=O)[O-])c1Nc1ccccc1Cl
IC50 (Coagulation factor XII): > 50 µM (inactive)
IC50 (cells): 8.86 µM (active)

CCCCC(c1nnnn1C1CCCC1)N1CCN(C2CCCCC2)CC1 (stereo not given)
IC50 [15]: > 43.8 µM (not active)
IC50 [16]: > 43.8 µM (not active)

COc1ccccc1NS(=O)(=O)c1cccc(C(=O)NC2CCN(Cc3ccccc3)CC2)c1
EC50 [17]: > 120 µM (not active)
EC50 [18]: > 120 µM (not active)
EC50 [19]: > 120 µM (not active)
EC50 [13]: 0.376 µM (active)
EC50 [14]: 0.944 µM (active)
AC50 [20]: 1.95 µM (active)
AC50 [21]: 0.52 µM (active)
AC50 [22]: 1.8 µM (active)
IC50 (Protein Wnt-3a): 4.3 µM (active)

O=C(Nc1ccccc1Cl)C1CC(=O)N(c2ccccc2)C1 (stereo not given)
IC50 (Coagulation factor XII): > 50 µM (inactive)
